The chromatographic logP is lipophilicity estimated from chromatographic retention. Low values mean a more hydrophilic compound, high ones a more lipophilic compound.

The nature of the first data set: log P determination by HPLC (reversed-phase C18, EEC Directive 79/831 Annex V.A8). The class given is physicochemical. As to conditions: pH 2.3, 0.1% aqueous phosphoric acid/acetonitrile gradient, 43° C. An excerpt:
Mobile phases for determination in the acidic range: 0.1% aqueous phosphoric acid, acetonitrile; linear gradient from 10% acetonitrile to 90% acetonitrile.
With `CN(C)c1ncc(-c2ccc(C3CCC(c4c(F)cccc4F)=N3)cc2)cn1` (stereo not shown) [Example 42], the “log P (pH 2.3)” value amounted to 2.40. The compound `CC(C)(C)OC(=O)N1CCN(c2ccc(-c3ccc(C4CCC(c5c(F)cccc5F)=N4)cc3)nn2)CC1` (stereo not shown) [Example 51] showed a chromatographic logP of 2.07.

The same data set, now with this note: reversed-phase C18 HPLC column, pH 2.3, pH 2.3, 0.1% aqueous phosphoric acid/acetonitrile gradient, 43° C.
Consider `CCCN(CC)c1ncc(-c2ccc(C3CCC(c4c(F)cccc4F)=N3)cc2)cn1` (stereo not shown) [Example 1, N-(5-{4-[5-(2,6-difluorophenyl)-3,4-dihydro-2H-pyrrol-2-yl]phenyl}-2-pyrimidinyl)-N-ethyl-N-propylamine], for which the chromatographic logP was 3.57.

As to `Fc1cccc(F)c1C1=NC(c2ccc(-c3ccc(C(F)(F)F)cn3)cc2)CC1` (stereo not shown) [Example 2], the chromatographic logP worked out at 3.25. In turn, `Fc1cccc(F)c1C1=NC(c2ccc(-c3cnc(OCC(F)(F)F)nc3)cc2)CC1` (stereo not shown) [Example 3, 5-{4-[5-(2,6-difluorophenyl)-3,4-dihydro-2H-pyrrol-2-yl]phenyl}-2-(2,2,2-trifluorethoxy)pyrimidine] came in with a chromatographic logP of 2.88. Compound `Fc1cccc(F)c1C1=NC(c2ccc(-c3ccccn3)cc2)CC1` (stereo not shown) [Example 4] registered a chromatographic logP of 1.24. For the compound `Fc1cccc(F)c1C1=NC(c2ccc(-c3ccc(Cl)cn3)cc2)CC1` (stereo not shown) [Example 5], the chromatographic logP stood at 2.86.

In turn, `N#CCc1ccc(-c2ccc(C3CCC(c4c(F)cccc4F)=N3)cc2)nc1` (stereo not shown) [Example 6] came in with a chromatographic logP of 1.74.

Turning to `COC(=O)c1ccc(-c2ccc(C3CCC(c4c(F)cccc4F)=N3)cc2)nc1` (stereo not shown) [Example 7], the chromatographic logP turned out to be 2.39. With `CC(C)OC(=O)c1ccc(-c2ccc(C3CCC(c4c(F)cccc4F)=N3)cc2)nc1` (stereo not shown) [Example 8], the chromatographic logP came out at 3.89. `CC(C)COC(=O)c1ccc(-c2ccc(C3CCC(c4c(F)cccc4F)=N3)cc2)nc1` (stereo not shown) [Example 9]: the chromatographic logP turned out to be 3.28. On to `CCN(CC)C(=O)c1ccc(-c2ccc(C3CCC(c4c(F)cccc4F)=N3)cc2)nc1` (stereo not shown) [Example 10], for which the chromatographic logP is 2.02. Take `CCCN(CCC)C(=O)c1ccc(-c2ccc(C3CCC(c4c(F)cccc4F)=N3)cc2)nc1` (stereo not shown) [Example 11]: the chromatographic logP is 2.7. Compound `CN(Cc1ccc(-c2ccc(C3CCC(c4c(F)cccc4F)=N3)cc2)nc1)S(=O)(=O)C(F)(F)F` (stereo not shown) [Example 13] registered a chromatographic logP of 3.06. `CC(C)N(Cc1ccc(-c2ccc(C3CCC(c4c(F)cccc4F)=N3)cc2)nc1)S(=O)(=O)C(F)(F)F` (stereo not shown) [Example 14] displayed a chromatographic logP of 3.48. Compound `O=S(=O)(N(Cc1ccc(-c2ccc(C3CCC(c4c(F)cccc4F)=N3)cc2)nc1)C1CC1)C(F)(F)F` (stereo not shown) [Example 15] displayed a chromatographic logP of 3.39. `COCCN(Cc1ccc(-c2ccc(C3CCC(c4c(F)cccc4F)=N3)cc2)nc1)S(=O)(=O)C(F)(F)F` (stereo not shown) [Example 16]: the chromatographic logP amounted to 3.21. `CCN(Cc1ccc(-c2ccc(C3CCC(c4c(F)cccc4F)=N3)cc2)nc1)S(=O)(=O)C(F)(F)F` (stereo not shown) [Example 17]: the chromatographic logP came to 3.35. In turn, `Fc1cccc(F)c1C1=NC(c2ccc(-c3cccnc3)cc2)CC1` (stereo not shown) [Example 18] gave a chromatographic logP of 1.12.

`Fc1cccc(F)c1C1=NC(c2ccc(-c3ccc(Cl)nc3)cc2)CC1` (stereo not shown) [Example 19] gave a chromatographic logP of 2.58. Consider `Fc1cccc(F)c1C1=NC(c2ccc(-c3ccc(OCC(F)(F)F)nc3)cc2)CC1` (stereo not shown) [Example 20], for which the chromatographic logP was found to be 3.66.

`Fc1cccc(F)c1C1=NC(c2ccc(-c3ccc(N4CCOCC4)nc3)cc2)CC1` (stereo not shown) [Example 21] came in with a chromatographic logP of 1.44. On the same count and under the same terms, in the case of `CN(c1ccc(-c2ccc(C3CCC(c4c(F)cccc4F)=N3)cc2)nc1)S(=O)(=O)C(F)(F)F` (stereo not shown) [Example 23] it was 2.63. For `Fc1cccc(F)c1C1=NC(c2ccc(-c3ccc(N4CCCC4)nc3)cc2)CC1` (stereo not shown) [Example 24], the chromatographic logP worked out at 1.45. Consider `Fc1cccc(F)c1C1=NC(c2ccc(-c3ncccn3)cc2)CC1` (stereo not shown) [Example 26], for which the chromatographic logP worked out at 1.79.

The compound `Fc1cccc(F)c1C1=NC(c2ccc(-c3cnc(Cl)nc3)cc2)CC1` (stereo not shown) [Example 27] returned a chromatographic logP of 1.98. Turning to `Fc1cccc(F)c1C1=NC(c2ccc(-c3cncnc3)cc2)CC1` (stereo not shown) [Example 28], the chromatographic logP turned out to be 1.49. The compound `CN(C)c1ncc(-c2ccc(C3CCC(c4c(F)cccc4F)=N3)cc2)cn1` (stereo not shown) [Example 29] showed a chromatographic logP of 3.62. For `CC(C)Oc1ncc(-c2ccc(C3CCC(c4c(F)cccc4F)=N3)cc2)cn1` (stereo not shown) [Example 30], the chromatographic logP worked out at 2.61.

With `CC(C)Sc1ncc(-c2ccc(C3CCC(c4c(F)cccc4F)=N3)cc2)cn1` (stereo not shown) [Example 31], the chromatographic logP is 3.49. In turn, `Fc1cccc(F)c1C1=NC(c2ccc(-c3cnc(N4CCOCC4)nc3)cc2)CC1` (stereo not shown) [Example 32] returned a chromatographic logP of 2.18. In turn, `CC(C)COc1ncc(-c2ccc(C3CCC(c4c(F)cccc4F)=N3)cc2)cn1` (stereo not shown) [Example 33] came in with a chromatographic logP of 3.22. `CC1CC(C)CN(c2ncc(-c3ccc(C4CCC(c5c(F)cccc5F)=N4)cc3)cn2)C1` (stereo not shown) [Example 34] displayed a chromatographic logP of 4.39. On the same count and under the same terms, the same measure for `Fc1cccc(F)c1C1=NC(c2ccc(-c3cnc(N4CCCCC4)nc3)cc2)CC1` (stereo not shown) [Example 35]: 3.4; for `CC(C)(C)C(=O)N1CCN(c2ncc(-c3ccc(C4CCC(c5c(F)cccc5F)=N4)cc3)cn2)CC1` (stereo not shown) [Example 36]: 2.81; for `CN(c1ncc(-c2ccc(C3CCC(c4c(F)cccc4F)=N3)cc2)cn1)S(=O)(=O)C(F)(F)F` (stereo not shown) [Example 37]: 3.5.

`O=S(=O)(N(c1ncc(-c2ccc(C3CCC(c4c(F)cccc4F)=N3)cc2)cn1)C1CC1)C(F)(F)F` (stereo not shown) [Example 38] returned a chromatographic logP of 3.63.

In turn, `Fc1cccc(F)c1C1=NC(c2ccc(-c3cnc(N4CCCC4)nc3)cc2)CC1` (stereo not shown) [Example 41] showed a chromatographic logP of 2.11.

Take `CCN(CC)c1ncc(-c2ccc(C3CCC(c4c(F)cccc4F)=N3)cc2)cn1` (stereo not shown) [Example 43]: the chromatographic logP was determined as 3. Same read-out and setting: in the case of `Fc1cccc(F)c1C1=NC(c2ccc(-c3ccc(OCC(F)(F)F)nn3)cc2)CC1` (stereo not shown) [Example 45] it was 3.77; in that of `CC(C)Oc1ccc(-c2ccc(C3CCC(c4c(F)cccc4F)=N3)cc2)nn1` (stereo not shown) [Example 46], 2.5; in that of `CC(C)Sc1ccc(-c2ccc(C3CCC(c4c(F)cccc4F)=N3)cc2)nn1` (stereo not shown) [Example 47], 2.94. As to `Fc1cccc(F)c1C1=NC(c2ccc(-c3ccc(N4CCOCC4)nn3)cc2)CC1` (stereo not shown) [Example 48], the chromatographic logP amounted to 1.19. `CCCNc1ccc(-c2ccc(C3CCC(c4c(F)cccc4F)=N3)cc2)nn1` (stereo not shown) [Example 49] came in with a chromatographic logP of 1.26.

In turn, `O=C1CCCN1c1ccc(-c2ccc(C3CCC(c4c(F)cccc4F)=N3)cc2)nn1` (stereo not shown) [Example 50] returned a chromatographic logP of 1.85. Regarding `CCCN(CC)c1ccc(-c2ccc(C3CCC(c4c(F)cccc4F)=N3)cc2)nn1` (stereo not shown) [Example 52], the chromatographic logP amounted to 1.6. With `CN(c1ccc(-c2ccc(C3CCC(c4c(F)cccc4F)=N3)cc2)nn1)S(=O)(=O)C(F)(F)F` (stereo not shown) [Example 53], the chromatographic logP is 1.66. Still for that read-out and setting: in the case of `CC(=O)N(c1ccc(-c2ccc(C3CCC(c4c(F)cccc4F)=N3)cc2)nn1)C(C)C` (stereo not shown) [Example 54] it was 2.03. Turning to `CCCCN(CCCC)c1ccc(-c2ccc(C3CCC(c4c(F)cccc4F)=N3)cc2)nn1` (stereo not shown) [Example 55], the chromatographic logP was found to be 2.56.

For the origin of these results see patent US7179806B2, “Δ1-pyrrolines used as pesticides” (Bayer Cropscience AG, priority 2000, dated 2007).
